This note sets out measurements from patent publication US6071903A, “2,3,4,5-tetrahydro-1H-[1,4]-benzodiazepine-3-hydroxyamic acids” (American Cyanamid Company, priority 1999, dated 2000).

What is called IC50 is the midpoint of a concentration-inhibition curve.

Common to all, as to type: biochemical
For one assay, the target named is T1, MMP-1 (Homo sapiens, UniProt P03956).
T1 construct: human recombinant fibroblast collagenase (truncated, mw=18,828)
T1 sequence (P03956 100-269 limits assumed): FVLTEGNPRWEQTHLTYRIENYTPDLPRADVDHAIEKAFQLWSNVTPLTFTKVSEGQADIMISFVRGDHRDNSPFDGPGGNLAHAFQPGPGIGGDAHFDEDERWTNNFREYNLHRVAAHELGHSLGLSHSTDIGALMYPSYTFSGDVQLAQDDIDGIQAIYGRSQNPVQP
In words: In Vitro Collagenase Assay (MMP-1). The settings on record: human recombinant fibroblast collagenase. An excerpt: In Vitro Collagenase Assay
This assay was based on the cleavage of a peptide substrate ((Dnp-Pro-Cha-Gly-Cys(Me)-His-Ala-Lys(NMa)-NH2), available from Peptide International, Inc.) by collagenase releasing the fluorescent NMa group which was quantitated on the fluorometer as disclosed in Bickett et al., "A High Throughput Fluorogenic Substrate for Interstitial Collagenase (MMP-1) and Gelatinase (MMP-9)", Anal. Biochem., 212:58-64, (1993). Dnp quenches the NMa fluorescence in the intact substrate.
The assay was run in HCBC assay buffer (50 mM HEPES, pH 7.0, 5 mM Ca^+2, 0.02% Brij, 0.5% Cysteine), with human recombinant fibroblast collagenase (truncated, mw=18,828. from Wyeth-Ayerst Research, Radnor, Pa.). The substrate was dissolved in methanol and stored frozen in 1 mM aliquots. Collagenase was stored frozen in buffer in 25 μM aliquots. In conducting the assay, the substrate was dissolved in HCBC buffer to a final concentration of 10 μM and collagenase to a final concentration of 5 nM. The compounds being examined were dissolved in methanol, DMSO, or HCBC. The methanol and DMSO were diluted in HCBC to <1.0%. The compounds were added to a 96 well plate containing enzyme and the reaction was started by the addition of substrate.
The reaction was read (excitation 340 nm, emission 444 nm) for 10 min. and the increase in fluorescence over time was plotted as a linear line. The slope of the line was calculated representing the reaction rate. The linearity of the reaction rate was confirmed (r^2 >0.85). The mean (x±sem) of the control rate was calculated and compared for statistical significance (p<0.05) with drug-treated rates using Dunnett's multiple comparison test.

The target in the next assay is MMP-9 (Homo sapiens, UniProt P14780). In words: In Vitro Gelatinase Assay (MMP-9). The settings on record: human neutrophil gelatinase B. How it is done: The enzyme activity is measured by the rate of the color increase. The thiopeptide substrate was made up fresh as a 20 mM stock in 100% DMSO and the DTNB was dissolved in 100% DMSO as a 100 mM stock and stored in the dark at room temperature. The substrate and the DTNB were diluted together to 1 mM with substrate buffer (50 mM HEPES, pH 7.5, 5 mM CaCl2) before use. […] The assay buffer, enzyme. […] The increase in OD405 was plotted and the slope of the line was calculated. The slope represents the reaction rate.
MMP-9, sequence (P14780 94-707): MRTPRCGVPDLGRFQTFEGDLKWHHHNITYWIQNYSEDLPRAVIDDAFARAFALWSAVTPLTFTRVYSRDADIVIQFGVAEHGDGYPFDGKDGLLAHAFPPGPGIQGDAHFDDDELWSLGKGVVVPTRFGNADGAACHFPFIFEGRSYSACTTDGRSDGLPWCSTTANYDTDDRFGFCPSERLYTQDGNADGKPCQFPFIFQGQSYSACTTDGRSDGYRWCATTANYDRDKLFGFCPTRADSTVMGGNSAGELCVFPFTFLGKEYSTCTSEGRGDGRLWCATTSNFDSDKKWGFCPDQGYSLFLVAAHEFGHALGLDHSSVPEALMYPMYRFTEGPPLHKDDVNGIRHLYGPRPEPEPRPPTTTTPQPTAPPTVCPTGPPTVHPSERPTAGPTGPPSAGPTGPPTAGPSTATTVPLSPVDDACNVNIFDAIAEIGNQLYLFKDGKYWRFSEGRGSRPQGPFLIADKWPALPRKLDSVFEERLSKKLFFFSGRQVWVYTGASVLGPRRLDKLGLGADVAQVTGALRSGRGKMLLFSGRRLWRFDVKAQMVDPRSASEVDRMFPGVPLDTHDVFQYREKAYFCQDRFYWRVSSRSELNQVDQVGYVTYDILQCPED

The target in the next assay is MMP-13 (Homo sapiens, UniProt P45452). Briefly: MMP-13 inhibition (Table 1). The settings on record: read-out: IC50 (nM) MMP-13.
A further assay deals with T2, TACE (Homo sapiens, UniProt P78536).
T2 construct: purchased Immunex
T2 sequence (P78536 215-824): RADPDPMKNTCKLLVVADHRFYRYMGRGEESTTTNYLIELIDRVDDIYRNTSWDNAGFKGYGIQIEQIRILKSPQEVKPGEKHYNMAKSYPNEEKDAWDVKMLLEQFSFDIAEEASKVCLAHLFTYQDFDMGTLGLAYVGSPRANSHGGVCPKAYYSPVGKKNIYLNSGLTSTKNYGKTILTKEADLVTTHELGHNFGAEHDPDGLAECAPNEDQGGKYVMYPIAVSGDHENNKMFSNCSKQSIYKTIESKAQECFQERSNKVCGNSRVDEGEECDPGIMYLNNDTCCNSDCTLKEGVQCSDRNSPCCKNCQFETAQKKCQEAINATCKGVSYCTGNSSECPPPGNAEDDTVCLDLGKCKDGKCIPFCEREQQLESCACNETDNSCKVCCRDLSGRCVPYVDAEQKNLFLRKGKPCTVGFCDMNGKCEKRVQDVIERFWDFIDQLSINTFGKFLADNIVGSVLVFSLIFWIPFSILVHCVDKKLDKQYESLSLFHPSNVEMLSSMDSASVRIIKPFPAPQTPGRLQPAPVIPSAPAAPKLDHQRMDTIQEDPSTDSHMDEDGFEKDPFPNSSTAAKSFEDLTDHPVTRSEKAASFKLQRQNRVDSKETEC
In words: Procedure for Measuring TACE Inhibition. How it is done: Procedure for Measuring TACE Inhibition
The plates were incubated for 10 minutes at room temperature. The reaction was initiated by addition of a fluorescent peptidyl substrate (final concentration 100 μM) to each well with shaking on a shaker for 5 sec.
The reaction was read (excitation 340 nm, emission 420 nm) for 10 min. and the increase in fluorescence over time was plotted as a linear line. The slope of the line was calculated and this represents the reaction rate. […] The mean (x±sem) of the control rate was calculated and compared for statistical significance (p<0.05) with drug-treated rates using Dunnett's multiple comparison test.

On to `COCC(=O)N1CC(C(=O)NO)N(S(=O)(=O)c2ccc(OC)cc2)Cc2ccccc21` (centres unmarked) [Example 9, 1-Methoxyacetyl-4-(4-methoxybenzenesulfonyl)-2,3,4,5-tetrahydro-1H-[1,4]benzodiazepine-3-carboxylic acid, Hydroxyamide], for which the IC50 on MMP-1 was 34.1 nM; against MMP-9, 1.34 nM; at MMP-13, 1.19 nM; at TACE, 95.2 nM.

As for `COc1ccc(S(=O)(=O)N2Cc3cc(C)ccc3N(C(=O)c3ccccc3-n3cccn3)CC2C(=O)NO)cc1` (centres unmarked) [Example 63], the IC50 on MMP-1 was 130 nM; against MMP-9 it was 5.6 nM; at MMP-13 it was 3.1 nM; against TACE it was 446 ± 48 nM.

In the case of `COc1ccc(S(=O)(=O)N2Cc3ccccc3N(Cc3ccccc3)CC2C(=O)NO)cc1` (centres unmarked) [Example 67, 1-Benzyl-4-(4-methoxybenzenesulfonyl)-2,3,4,5-tetrahydro-1H-[1,4]benzodiazepine-3-carboxylic acid, Hydroxylamide], the IC50 on MMP-1 stood at 1320 nM; at MMP-9 it was 50.8 nM; on MMP-13, 73.9 nM; against TACE it was 551 ± 29 nM.

Regarding `COc1ccc(S(=O)(=O)N2Cc3ccc(Cl)cc3N(C(=O)c3ccc(OC(F)(F)F)cc3)CC2C(=O)NO)cc1` (centres unmarked) [Example 61, 4-(4-Methoxybenzenesulfonyl)-1-[4-(trifluoromethoxy)benzoyl]-8-chloro-2,3,4,5-tetrahydro-1H-[1,4]benzodiazepine-3-carboxylic acid, Hydroxyamide], the IC50 stood at 239 nM at MMP-1, 1.3 nM at MMP-9, 0.4 nM at MMP-13 and 1250 ± 69 nM on TACE.

On to `COc1ccc(S(=O)(=O)N2Cc3ccccc3N(C(=O)c3cccc(C(F)(F)F)c3)CC2C(=O)NO)cc1` (centres unmarked) [Example 1, 4-(4-Methoxybenzenesulfonyl)-1-(3-trifluoromethylbenzoyl)-2,3,4,5-tetrahydro-1H-[1,4]-benzodiazepine-3-carboxylic acid, Hydroxyamide], for which the IC50 on MMP-1 was found to be 96.2 nM; against MMP-9, 5.1 nM; at MMP-13 it was 3.7 nM; at TACE it was 352 nM.

As to `COc1ccc(S(=O)(=O)N2Cc3ccccc3N(C(=O)c3ccncc3)CC2C(=O)NO)cc1` (centres unmarked) [Example 13, 4-(4-Methoxybenzenesulfonyl)-1-(4-pyridinylcarbonyl)-2,3,4,5-tetrahydro-1H-[1,4]benzodiazepine-3-carboxylic acid, Hydroxyamide], the IC50 came to 54.9 nM at MMP-1, 9.8 nM on MMP-9, 2 nM on MMP-13 and 154 nM on TACE.

As to `COc1ccc(S(=O)(=O)N2Cc3cc(C)ccc3N(C(=O)c3ccccc3)CC2C(=O)NO)cc1` (centres unmarked) [Example 60, 1-Benzoyl-4-(4-methoxybenzenesulfonyl)-7-methyl-2,3,4,5-tetrahydro-1H[1,4]benzodianzepine-3-carboxylic acid, Hydroxyamide], the IC50 stood at 22.7 nM at MMP-1, 1.4 nM against MMP-9, 1.3 nM on MMP-13 and 143 nM against TACE.

On to `COc1ccc(S(=O)(=O)N2Cc3ccccc3N(C(=O)c3ccc(OC)cc3OC)CC2C(=O)NO)cc1` (centres unmarked) [Example 71, 1-(2,4-Dimethoxybenzoyl)-4-(4-methoxybenzenesulfonyl)-2,3,4,5-tetrahydro-1H-[1,4]benzodiazepine-3-carboxylic acid, Hydroxyamide], for which the IC50 on MMP-1 was determined as 41.3 nM; against MMP-9 it was 2.4 nM; at MMP-13, 1.3 nM; on TACE, 136 nM.

On to `CCCS(=O)(=O)N1CC(C(=O)NO)N(S(=O)(=O)c2ccc(OC)cc2)Cc2ccccc21` (centres unmarked) [Example 10, 4-(4-Methoxybenzenesulfonyl)-1-(propane-1-sulfonyl)-2,3,4,5-tetrahydro-1H-[1,4]benzodiazepine-3-carboxylic acid, Hydroxyamide], for which the IC50 at MMP-1 was 183 nM; on MMP-9, 7 nM; on MMP-13, 2.8 nM; on TACE, 91 ± 10 nM.

Regarding `COc1ccc(S(=O)(=O)N2Cc3ccccc3N(C(=O)c3cccnc3)CC2C(=O)NO)cc1` (centres unmarked) [Example 7, 4-(4-Methoxybenzenesulfonyl)-1-(3-pyridinylcarbonyl)-2,3,4,5-tetrahydro-1H-[1,4]benzodiazepine-3-carboxylic acid, Hydroxyamide], the IC50 on MMP-1 came to 20.4 nM; against MMP-9 it was 0.6 nM; on MMP-13 it was 0.4 nM; against TACE, 77.7 nM.

For the compound `COc1ccc(S(=O)(=O)N2Cc3ccccc3N(C(=O)c3cc(F)ccc3C)CC2C(=O)NO)cc1` (centres unmarked) [Example 11, 4-(4-Methoxybenzenesulfonyl)-1-(2-methyl-5-fluorobenzoyl)-2,3,4,5-tetrahydro-1H-[1,4]benzodiazepine-3-carboxylic acid, Hydroxyamide], the IC50 at MMP-1 is 55.4 nM; against MMP-9 it was 3.9 nM; at MMP-13, 2.3 nM; against TACE, 271 nM.

As to `COc1ccc(S(=O)(=O)N2Cc3ccccc3N(S(C)(=O)=O)CC2C(=O)NO)cc1` (centres unmarked) [Example 3, 1-Methanesulfonyl-4-(4-methoxybenzenesulfonyl)-2,3,4,5-tetrahydro-1H-[1,4]benzodiazepine-3-carboxylic acid, Hydroxyamide], the IC50 at MMP-1 came to 156 nM; at MMP-9, 7.9 nM; at MMP-13, 3 nM; at TACE it was 104 ± 8 nM.

For the compound `COCC(=O)N1CC(C(=O)NO)N(S(=O)(=O)c2ccc(OC)cc2)Cc2cc(C)ccc21` (centres unmarked) [Example 59, 1-Methoxyacetyl-4-(4-methoxybenzenesulfonyl)-7-methyl-2,3-4,5-tetrahydro-1H-[1,4]benzodiazepine-3-carboxylic acid, hydroxyamine], the IC50 at MMP-1 came to 105 nM; at MMP-9, 2.6 nM; on MMP-13, 1.8 nM; against TACE it was 125 ± 6 nM.

Take `COc1ccc(S(=O)(=O)N2Cc3ccccc3N(C(C)=O)CC2C(=O)NO)cc1` (centres unmarked) [Example 6, 1-Acetyl-4-(4-methoxybenzenesulfonyl)-2,3,4,5-tetrahydro-1H-[1,4]benzodiazepine-3-carboxylic acid, Hydroxyamide]: the IC50 at MMP-1 amounted to 18.4 nM; at MMP-9, 1.4 nM; on MMP-13 it was 1 nM; on TACE, 103 nM.
